This note sets out measurements from publication PMC6968383, “Design, synthesis, in vitro and in vivo evaluation of benzylpiperidine-linked 1,3-dimethylbenzimidazolinones as cholinesterase inhibitors against Alzheimer’s disease” (Journal of Enzyme Inhibition and Medicinal Chemistry, 2019).

Like-named read-outs stand apart in the source and are kept apart here.

Series [1] has as its target T1, BChE (EC 3.1.1.8) from horse serum (Equus caballus, UniProt P81908).
T1 construct: horse serum BChE (eqBChE, Sigma-Aldrich); purchased Sigma-Aldrich; host or cells: horse serum
Kind of series: biochemical. The conditions noted are these: eqBChE; mean ± SEM of triplicate independent experiments; read-out: BChE IC50. As to the method:
(§1) The data were expressed as IC50 values (Table 1).
(§2) The inhibitory activities of the target compounds towards AChE (from Electrophorus electricus (electric eeAChE, Sigma-Aldrich) and horse serum BChE (eqBChE, Sigma-Aldrich) or human AChE – huAChE; human BuChE – huBuChE (huAChE, huBuChE, Sigma-Aldrich) were measured by Ellman’s method. In 96-well plates, a mixture of phosphate buffer (0.1 M, pH 8.0, […]), 5,5′-dithiobis-2-nitrobenzoic acid (DTNB, 60 µL), acetylcholinestrase or butyrylcholinesterase (20 µL, 5 IU/mL) and different concentration of the compound solution (30 µL) was pre-incubated for 5 min followed by the addition of the substrate (acetylthiocholine iodide or butyrylthiocholine iodide, 20 µL). […] The measurement of each concentration for each compound was detected in triplicate. GraphPad Prism 6.0 (GraphPad Software, Inc., La Jolla, CA) was used for data processing. The inhibition curve was fitted by plotting percentage enzyme activity (100% for the reference) versus the logarithm of the concentration of tested compound. The half-maximal inhibitory concentration (IC50) values were calculated according to the inhibition curve and the data were shown in the layout of mean ± SEM by GraphPad Prism 6.0.

Series [2] deals with T2, AChE (EC 3.1.1.7) from electric eel (Electrophorus electricus, UniProt O42275).
T2 construct: purchased Sigma-Aldrich
The series can be described thus: biochemical. It counts as biochemical. As to conditions: for SI (selectivity index = AChE IC50/BChE IC50): eeAChE IC50 / eqBChE IC50; for IC50: eeAChE, mean ± SEM of triplicate independent experiments, read-out: AChE IC50. As for the experimental part: as §1, §2

The format of series [3] is in vivo. As to conditions: serum, tacrine 30 mg kg−1, mean ± SEM n = 6. As for the experimental part:
. Heparinised serum was obtained after the treatment of 15b and 15j at 8, 22, and 36 h, respectively. The serum levels of ALT and AST are directly proportional to the severity of the liver damage. […]

Series [4] concerns scopolamine-induced cognition impairment in ICR mice. The series can be described thus: Morris water maze test, scopolamine-induced cognition impairment. The conditions noted are these: oral 15 mg kg−1, scopolamine 1 mg kg−1 ip, probe trial on sixth day, mean ± SEM n = 6. It counts as in vivo. As for the experimental part:
The test included 5 days of learning and memory training and a probe trial on the sixth day.
Scopolamine hydrobromide was supplied by Aladdin Reagents (H1507073, Shanghai, China).
Cognitive function was evaluated by the Morris water maze analysis-management system (SMART 3.0, Panlab, Madrid, Spain), according to the method previously described[30].The maze was placed in a lit room with visual cues at 25 °C. An escape platform (10 cm diameter) was located in the centre of one quadrant of the circular pool (120 cm diameter, 60 cm height) with a depth of 40 cm water. The behavioural study of each mouse included 5 days of learning and memory training and a probe trial on day 6. The animal starting positions faced to the pool wall, and were pseudorandomised for each trial. For the cognitive evaluation, each mouse was individually evaluated on both visible-platform (days 1–2) and hidden-platform (days 3–5) versions of the water maze. All mice received nonspatial pretraining during the first two training days, which prepared them for the subsequent spatial learning test. During the two days, mice were trained to find the platform that was labelled by a small flag (5 cm tall). The hidden platform version was used to determine the retention of memory to find the platform. During the hidden-platform training trials, the escape platform was placed 1 cm below the surface of the water. On each day, the animal was subjected to two trials, each of which lasted for 90 s. The time for the mouse to find the platform (a successful escape) was recorded. […] On the last day (day 6), the platform was removed from its location and the animals were given a probe trial in which they had 90 s to search for the platform. The time taken to reach the missing platform and the number of times the animals crossed the platform location were recorded.
Data for the time of escape latency, the trajectory travelled, and the number of platform location crossings were recorded by SMART 3.0, Panlab, Madrid, Spain and processed by GraphPad Prism 6.0.

The subject of a further series is liver. Kind of series: Liver histopathological study (HE staining). As to conditions: 36 h after administration, compared to control group. The text has this:
Figure 7. […] HE staining, original magnification ×200.

T1 sequence (P81908 whole entry): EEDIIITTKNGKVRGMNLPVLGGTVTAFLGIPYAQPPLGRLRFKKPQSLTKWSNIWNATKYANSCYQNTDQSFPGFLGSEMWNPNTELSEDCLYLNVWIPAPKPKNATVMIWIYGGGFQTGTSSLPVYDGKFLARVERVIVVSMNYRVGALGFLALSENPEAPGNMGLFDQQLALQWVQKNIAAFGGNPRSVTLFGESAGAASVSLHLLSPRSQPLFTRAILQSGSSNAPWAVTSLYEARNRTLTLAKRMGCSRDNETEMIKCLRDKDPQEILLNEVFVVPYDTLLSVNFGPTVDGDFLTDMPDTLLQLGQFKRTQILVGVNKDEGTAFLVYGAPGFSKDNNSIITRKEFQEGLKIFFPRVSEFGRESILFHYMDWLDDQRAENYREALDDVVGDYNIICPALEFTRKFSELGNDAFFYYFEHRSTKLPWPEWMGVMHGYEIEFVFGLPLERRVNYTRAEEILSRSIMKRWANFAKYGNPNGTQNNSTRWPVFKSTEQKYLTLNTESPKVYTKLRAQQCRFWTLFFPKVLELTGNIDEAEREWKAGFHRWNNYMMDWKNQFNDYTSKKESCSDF
T2 sequence (O42275 24-633): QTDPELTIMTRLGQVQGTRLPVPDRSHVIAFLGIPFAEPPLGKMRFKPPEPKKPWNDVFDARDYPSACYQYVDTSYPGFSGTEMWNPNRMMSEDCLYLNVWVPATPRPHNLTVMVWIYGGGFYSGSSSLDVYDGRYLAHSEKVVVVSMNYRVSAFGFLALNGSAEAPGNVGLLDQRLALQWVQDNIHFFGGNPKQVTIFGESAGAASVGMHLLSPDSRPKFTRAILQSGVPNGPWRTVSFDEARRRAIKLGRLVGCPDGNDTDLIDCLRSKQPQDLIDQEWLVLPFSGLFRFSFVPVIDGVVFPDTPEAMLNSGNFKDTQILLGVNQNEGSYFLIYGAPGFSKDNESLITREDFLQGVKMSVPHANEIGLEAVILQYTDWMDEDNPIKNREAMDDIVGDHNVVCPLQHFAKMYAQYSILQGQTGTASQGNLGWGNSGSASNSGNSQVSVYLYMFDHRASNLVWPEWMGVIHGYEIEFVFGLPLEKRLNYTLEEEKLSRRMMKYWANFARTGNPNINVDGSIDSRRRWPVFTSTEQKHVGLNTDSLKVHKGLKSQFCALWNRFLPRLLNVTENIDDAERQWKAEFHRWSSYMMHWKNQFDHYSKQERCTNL

Regarding `COc1cccc(CN2CCC(CNS(=O)(=O)c3ccc4c(c3)n(C)c(=O)n4C)CC2)c1` [Compound 15e, N-((1–(3-methoxybenzyl)piperidin-4-yl)methyl)-1,3-dimethyl-2-oxo-2,3-dihydro-1H-benzo[d]imidazole-5-sulphonamide], in series [1], the concentration for half-maximal inhibition (IC50) was 20300 ± 3080 nM. For the same compound, in series [2], the “SI (selectivity index = AChE IC50/BChE IC50)” value was 0.45 and the IC50 amounted to 9350 ± 2320 nM.

With `Cn1c(=O)n(C)c2cc(S(=O)(=O)NCC3CCN(Cc4cccc(F)c4)CC3)ccc21` [Compound 15f, N-((1–(3-fluorobenzyl)piperidin-4-yl)methyl)-1,3-dimethyl-2-oxo-2,3-dihydro-1H-benzo[d]imidazole-5-sulphonamide], the IC50 in series [1] is 1370 ± 740 nM. In series [2], the “SI (selectivity index = AChE IC50/BChE IC50)” value was found to be 0.75 and the IC50 came to 1040 ± 480 nM.

On to `Cn1c(=O)n(C)c2cc(S(=O)(=O)NCC3CCN(Cc4cccc(Cl)c4)CC3)ccc21` [Compound 15g, N-((1–(3-chlorobenzyl)piperidin-4-yl)methyl)-1,3-dimethyl-2-oxo-2,3-dihydro-1H-benzo[d]imidazole-5-sulphonamide], for which the concentration for half-maximal inhibition (IC50) was found to be 1010 ± 460 nM in series [1] and 150 ± 20 nM in series [2]. Also, the “SI (selectivity index = AChE IC50/BChE IC50)” value in series [2] was 0.15.

For the compound `Cn1c(=O)n(C)c2cc(S(=O)(=O)NCC3CCN(Cc4ccc(Cl)cc4)CC3)ccc21` [Compound 15h, N-((1–(4-chlorobenzyl)piperidin-4-yl)methyl)-1,3-dimethyl-2-oxo-2,3-dihydro-1H-benzo[d]imidazole-5-sulphonamide], the IC50 in series [1] was determined as 2230 ± 810 nM. In series [2], the “SI (selectivity index = AChE IC50/BChE IC50)” value worked out at 0.87 and the IC50 was found to be 1950 ± 280 nM.

On to `Cn1c(=O)n(C)c2cc(S(=O)(=O)NCC3CCN(Cc4ccccc4Br)CC3)ccc21` [Compound 15i, N-((1–(2-bromobenzyl)piperidin-4-yl)methyl)-1,3-dimethyl-2-oxo-2,3-dihydro-1H-benzo[d]imidazole-5-sulphonamide], for which the IC50 turned out to be 220 ± 40 nM in series [1] and 420 ± 60 nM in series [2].

Turning to `Nc1c2c(nc3ccccc13)CCCC2` [Tacrine], in series [3] (8 h after treatment), the ALT is 32.7 ± 1.7 U/L and the AST came to 95.1 ± 9.5 U/L. In series [3] (22 h after treatment), this compound had an ALT of 31.7 ± 1.2 U/L and an AST of 108.9 ± 6.1 U/L. In series [3] (36 h after treatment), the ALT is recorded as 35.8 ± 6.7 U/L and the AST is listed as 110.4 ± 9.4 U/L. Also, in series [4], the Distance to target turned out to be 310.01 ± 9.54 cm and the Latency to target stood at 12.06 ± 0.37 s. Moreover, the “morphologic changes in liver” value with liver was “did not result in remarkable morphologic changes in liver”.

As usually defined, the IC50 is the concentration needed to halve the response being measured.
